# Measured values from PMC11956013, “Structure–Activity Relationships and Evaluation of 2-(Heteroaryl-cycloalkyl)-1H-indoles as Tauopathy Positron Emission Tomography Radiotracers” (Journal of Medicinal Chemistry, 2025).
# Legend:
# EGFR kinase (h) = EGFR kinase (h) (Homo sapiens, UniProt P00533); conditions: Enzymatic activity; 1.0E-05 M
# 5-HT2A (h) = target: T1, 5-HT2A (h) (Homo sapiens, UniProt P28223); assay: Eurofins panel: 5-HT2A (h) (agonist radioligand); format: binding; conditions: 1.0E-05 M; 5-HT2A (h) (agonist radioligand)
# T1 construct: purchased Eurofins (contract screening, CNS SafetyScreen panel)
# p38alpha kinase (h) = p38alpha kinase (h) (Homo sapiens, UniProt Q16539); conditions: compound concentration 1.0E-05 M
# acetylcholinesterase (h) = acetylcholinesterase (h) (Homo sapiens, UniProt P22303)
# N neuronal alpha7 (h) = N neuronal alpha7 (h) (Homo sapiens, UniProt P36544); assay: Eurofins panel: N neuronal alpha7 (h) (antagonist radioligand); conditions: compound concentration 1.0E-05 M
# Sequence of N neuronal alpha7 (h) (P36544 23-502): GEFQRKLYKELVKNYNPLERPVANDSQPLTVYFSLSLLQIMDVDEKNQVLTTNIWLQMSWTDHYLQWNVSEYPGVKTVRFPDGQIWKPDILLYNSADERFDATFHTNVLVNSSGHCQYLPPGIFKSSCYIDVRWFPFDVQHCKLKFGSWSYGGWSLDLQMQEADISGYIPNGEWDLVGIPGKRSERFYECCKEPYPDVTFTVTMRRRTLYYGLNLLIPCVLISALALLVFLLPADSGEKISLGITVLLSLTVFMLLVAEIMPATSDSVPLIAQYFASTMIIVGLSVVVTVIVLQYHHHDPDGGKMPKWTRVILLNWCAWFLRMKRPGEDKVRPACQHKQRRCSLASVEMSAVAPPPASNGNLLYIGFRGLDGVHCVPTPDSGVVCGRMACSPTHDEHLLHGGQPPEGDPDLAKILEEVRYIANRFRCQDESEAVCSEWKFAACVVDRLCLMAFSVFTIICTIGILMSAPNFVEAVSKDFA
# Sequence of EGFR kinase (h) (P00533 25-1210): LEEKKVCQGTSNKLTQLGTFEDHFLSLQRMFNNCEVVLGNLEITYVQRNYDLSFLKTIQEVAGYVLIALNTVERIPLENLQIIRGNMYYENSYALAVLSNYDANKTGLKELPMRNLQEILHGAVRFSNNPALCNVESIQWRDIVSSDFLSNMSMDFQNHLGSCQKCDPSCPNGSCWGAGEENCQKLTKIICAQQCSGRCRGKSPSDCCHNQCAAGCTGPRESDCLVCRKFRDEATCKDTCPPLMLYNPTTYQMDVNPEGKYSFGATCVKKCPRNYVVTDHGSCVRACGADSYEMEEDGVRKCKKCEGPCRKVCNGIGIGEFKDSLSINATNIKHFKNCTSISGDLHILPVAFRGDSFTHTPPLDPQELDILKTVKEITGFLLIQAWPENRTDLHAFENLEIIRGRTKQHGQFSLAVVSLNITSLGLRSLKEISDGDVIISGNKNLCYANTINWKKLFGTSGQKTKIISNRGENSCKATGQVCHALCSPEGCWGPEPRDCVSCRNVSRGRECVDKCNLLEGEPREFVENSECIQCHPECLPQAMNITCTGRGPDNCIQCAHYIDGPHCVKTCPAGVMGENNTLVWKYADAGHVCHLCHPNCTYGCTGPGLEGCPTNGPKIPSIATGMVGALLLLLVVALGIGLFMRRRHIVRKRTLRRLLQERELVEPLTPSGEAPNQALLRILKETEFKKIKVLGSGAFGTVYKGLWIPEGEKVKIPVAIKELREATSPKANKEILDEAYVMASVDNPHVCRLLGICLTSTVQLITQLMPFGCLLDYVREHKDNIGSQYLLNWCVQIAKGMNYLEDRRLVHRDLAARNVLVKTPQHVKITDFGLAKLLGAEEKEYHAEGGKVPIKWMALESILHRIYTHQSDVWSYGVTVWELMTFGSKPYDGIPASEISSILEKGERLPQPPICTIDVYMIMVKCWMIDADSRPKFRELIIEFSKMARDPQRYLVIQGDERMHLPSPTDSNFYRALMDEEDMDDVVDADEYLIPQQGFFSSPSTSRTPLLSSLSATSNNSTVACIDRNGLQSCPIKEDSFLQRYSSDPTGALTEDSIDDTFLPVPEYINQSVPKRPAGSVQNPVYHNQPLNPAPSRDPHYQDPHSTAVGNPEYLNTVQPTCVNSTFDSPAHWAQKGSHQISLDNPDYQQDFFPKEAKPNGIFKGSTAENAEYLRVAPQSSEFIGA
# T1 sequence (P28223 whole entry): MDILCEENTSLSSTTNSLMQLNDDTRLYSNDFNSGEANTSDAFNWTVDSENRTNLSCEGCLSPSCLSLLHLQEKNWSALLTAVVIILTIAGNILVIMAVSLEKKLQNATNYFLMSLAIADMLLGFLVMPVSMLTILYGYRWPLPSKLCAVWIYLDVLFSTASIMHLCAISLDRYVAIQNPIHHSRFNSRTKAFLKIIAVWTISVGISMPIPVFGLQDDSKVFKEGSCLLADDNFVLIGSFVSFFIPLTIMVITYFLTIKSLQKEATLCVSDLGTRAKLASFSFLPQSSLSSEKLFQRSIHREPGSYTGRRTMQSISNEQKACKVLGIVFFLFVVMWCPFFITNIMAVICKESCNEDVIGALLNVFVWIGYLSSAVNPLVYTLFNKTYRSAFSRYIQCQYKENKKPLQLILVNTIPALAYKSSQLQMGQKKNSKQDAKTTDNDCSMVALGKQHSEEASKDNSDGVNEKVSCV
# Sequence of p38alpha kinase (h) (Q16539 whole entry): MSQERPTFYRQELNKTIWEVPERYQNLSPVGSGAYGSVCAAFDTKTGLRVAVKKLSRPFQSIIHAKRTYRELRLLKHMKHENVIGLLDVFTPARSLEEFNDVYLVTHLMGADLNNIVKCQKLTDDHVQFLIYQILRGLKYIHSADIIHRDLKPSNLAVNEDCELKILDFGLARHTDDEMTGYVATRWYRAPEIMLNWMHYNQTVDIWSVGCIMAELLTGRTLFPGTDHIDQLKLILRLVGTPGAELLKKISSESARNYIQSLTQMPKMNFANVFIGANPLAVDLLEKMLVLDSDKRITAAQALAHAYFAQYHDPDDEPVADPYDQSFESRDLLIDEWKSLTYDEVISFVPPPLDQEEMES
# Sequence of acetylcholinesterase (h) (P22303 32-614): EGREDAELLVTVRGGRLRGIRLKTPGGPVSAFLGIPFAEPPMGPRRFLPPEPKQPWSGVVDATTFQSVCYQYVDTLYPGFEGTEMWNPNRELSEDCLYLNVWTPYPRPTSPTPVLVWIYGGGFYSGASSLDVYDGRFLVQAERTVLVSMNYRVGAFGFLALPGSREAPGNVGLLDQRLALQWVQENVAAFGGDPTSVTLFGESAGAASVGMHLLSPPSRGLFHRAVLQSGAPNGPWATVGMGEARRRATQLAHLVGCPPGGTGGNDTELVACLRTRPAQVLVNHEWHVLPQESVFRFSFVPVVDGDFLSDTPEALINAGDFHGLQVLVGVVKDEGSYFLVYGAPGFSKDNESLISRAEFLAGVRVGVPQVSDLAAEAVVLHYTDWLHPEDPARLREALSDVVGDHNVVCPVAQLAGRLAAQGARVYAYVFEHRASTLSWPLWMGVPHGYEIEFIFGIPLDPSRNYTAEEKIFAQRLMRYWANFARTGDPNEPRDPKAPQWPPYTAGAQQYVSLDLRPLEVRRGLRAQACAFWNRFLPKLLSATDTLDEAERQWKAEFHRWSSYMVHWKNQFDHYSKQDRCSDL
smiles,measurement,setting,value
"Fc1nc(N2CCOCC2)ccc1-c1cc2ccccc2[nH]1 [Compound 75, 4-(6-Fluoro-5-(1H-indol-2-yl)pyridin-2-yl)morpholine]",% Inhibition,EGFR kinase (h),16.5474%
same,"% Inhibition, Specific binding",5-HT2A (h),1.045%
same,"% Inhibition, Enzymatic activity",p38alpha kinase (h),10.339%
same,"% Inhibition, Enzymatic activity",acetylcholinesterase (h),1.77%
same,"% Inhibition, Specific binding",N neuronal alpha7 (h),-7.00E+00%
